In paper PMC7108782, “Direct interaction of metastasis-inducing S100P protein with tubulin causes enhanced cell migration without changes in cell adhesion” (Biochemical Journal, 2020):
No end group written: not given here.

Key:
S100P = biological target: T1, S100P (Homo sapiens, UniProt P25815); assay: Isothermal titration calorimetry (ITC) of tubulin peptides with S100P; format: binding; conditions: for affinity for S100P (in words): NMR and ITC
T1 construct: made in house
T1 sequence (P25815 1-95): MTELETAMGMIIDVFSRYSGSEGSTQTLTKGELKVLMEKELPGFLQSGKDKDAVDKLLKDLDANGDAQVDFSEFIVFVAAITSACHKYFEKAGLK
Description: Measurements were conducted using an ITC-200 instrument (Microcal) as previously described. ITC titrations were performed in 20 mM MES pH 6.1, 50 mM NaCl, 1.0 mM TCEP and 5 mM CaCl2 (for Ca^2+-form of S100P) at 25°C. Due to low solubility, peptide solutions at concentrations of 10–400 µM were placed in the cell and titrated with S100P at concentrations of 0.5–3 mM, depending on the peptide concentration. Data were integrated and fitted to a single site binding equation using Origin 7 software which was included with the ITC module (Malvern Microcal, Malvern, U.K.).

Recombinant S100P [1] = biological target: T2, Recombinant S100P (UniProt P25815 1-95, 15N-labelled in the NMR experiments); assay: SPR; competition: 20 µM peptide mixed with 1 µM S100P, applied to the α,β-tubulin-coated chip; extent of binding relative to S100P alone (100%)
T2 chain: T1 sequence (P25815 1-95)

HeLa cells = assay: Boyden chamber cell migration with MT regulators, HeLa; conditions: 5 µM colchicine, 24 h
Rama 37 cells = assay: Boyden chamber cell migration with MT regulators, Rama 37; conditions: 5 µM colchicine, 24 h
Rama 37-T25 cells = assay: S100P-enhanced cell migration, Rama 37-T25; format: cell-based, rat; conditions: Rama 37-T25; 20 nM taxol or 5 µM colchicine, 24 h
Text: (§1) Cell migration rate (%) = M/G × 100.

MCF-7 cells = assay: Boyden chamber cell migration with MT regulators, MCF-7
COS-7 cells = assay: Boyden chamber cell migration, COS-7 parental; format: cell-based, monkey; conditions: 5 µM colchicine, 24 h, COS-7
Text: as §1

COS-7 S10 cells = assay: Boyden chamber cell migration, S100P-inducible COS-7; format: cell-based, monkey
Text: as §1

HeLa-A3 cells = assay: S100P-enhanced cell migration, HeLa-A3; format: cell-based, human; conditions: HeLa-A3; 20 nM taxol or 5 µM colchicine, 24 h
Text: as §1

S100P - α,β-tubulin = assay: SPR inhibition of S100P binding to α,β-tubulin-coated chip by peptides; set-up: species or system human; conditions: 20 µM peptide, 1 µM S100P
Description: For SPR binding assays, α,β-tubulin proteins described earlier were immobilised on a carboxymethylated dextran surface of a CM5 chip using BS^3 for use in Biocore X100. Recombinant S100P produced as described previously was used as a ligand in different concentrations at 20, 50, 100, 200, 1000, 2000 nM for calculation of the equilibrium dissociation constant (Kd) from the association/dissociation rate constants and from the extent of binding near equilibrium (Supplementary Table S2), as described previously. To detect the effects of tubulin peptides on the interaction of tubulin, different concentrations of tagged and untagged peptides were mixed with 1 µM S100P first and the mixtures were then applied to the tubulin-coated chip. The relative changes in kinetics and binding extents with different peptides were calculated using software provided by the manufacturer.

[2] = cited from earlier work; for Kd: ref [58], read-out: Kd for Ca2+ in absence of protein target
Text: Cell migration is a complicated biological process involving many disparate cellular machines and regulatory systems. The cytoskeleton is essential for cell migration and is composed of three major types of fibres, intermediate filaments, actomyosin filaments and MTs. The intermediate filaments mainly provide mechanical strength to cells, whilst actomyosin filaments directly provide forces for cell migration. The roles of MTs in cell migration are more complex. On the one hand, MTs are a major support to cell polarity and their assembly can provide force for directional mo ...

[3] = tested on: tubulin polymerisation in HeLa-A19 cells; assay: In vivo tubulin polymerisation assay, HeLa / HeLa-A19; format: cell-based, human; conditions: parental HeLa, 1 µg/ml doxycycline
Description: (§2) HeLa and S100P-inducible HeLa, COS-7 and S100P-inducible COS-7 cells were routinely cultured with or without doxycycline (1 µg/ml) and treated with 33 µM nocodazole for 24 h to synchronise the cells. Then the nocodazole was washed away (First release) and the synchronised cells were cultured in normal medium for 4 h to allow them to complete cell division. The nocodazole was then added again for 4 h to dissociate all the MTs. After this time, nocodazole was again removed by extensive washings (Second release) and tubulin was allowed to polymerise in the interphase of the cell cycle for different times. The cells were treated with buffer (10 mM Tris–HCl, 150 mM KCl, pH 7.4, 2% (v/v) Triton X-100) and the Triton-X100-insoluble tubulins (representing the newly formed MTs) were solubilised in Sample Buffer and quantified by Western blotting. To test the effect of tubulin-derived peptides, 20 µM T-DIC, T-DLV, T-IMN and tag-peptide alone (Supplementary Table S3) in 0.25% (v/v) DMSO as solvent, as well as the solvent control 0.25% (v/v) DMSO were added immediately after the second release in Sample Buffer and quantified at the different time points by Western blotting.

[4] = tested on: tubulin polymerisation in COS-7 S10 cells; assay: In vivo tubulin polymerisation assay, COS-7 / COS-7 S10; format: cell-based, monkey; conditions: parental COS-7, 1 µg/ml doxycycline
Description: as §2

tubulin = conditions: cited from earlier work; for interaction with tubulin: ref [24]; for effect on MT assembly: ref [25]
Text: The individual S100 proteins have been reported to interact inter alia with either NM or with tubulin, although with different binding affinities. […] Decreasing S100A1 is able to increase tubulin levels and this change alters neurite organisation in […]. […] However, it is ...

αβ-tubulin [5] = biological target: αβ-tubulin (UniProt P68363); assay: SPR; αβ-tubulin immobilised on a CM5 chip (Biacore X100), S100P in solution; 150 mM NaCl, 0.5 mM CaCl2, single cycle; Kd from the association and dissociation rate constants
αβ-tubulin [6] = biological target: αβ-tubulin (UniProt P68363); assay: SPR; αβ-tubulin immobilised on a CM5 chip, S100P in solution; 500 mM NaCl (printed 500M), 0.5 mM CaCl2, multiple cycles; Kd from the association and dissociation rate constants
αβ-tubulin [7] = biological target: αβ-tubulin (UniProt P68363); assay: SPR; αβ-tubulin immobilised on a CM5 chip, S100P in solution; 300 mM NaCl (printed 300M), 0.5 mM CaCl2, multiple cycles; Kd from the extent of binding at or near equilibrium
αβ-tubulin [8] = biological target: αβ-tubulin (UniProt P68363); assay: SPR; αβ-tubulin immobilised on a CM5 chip, S100P in solution; 300 mM NaCl (printed 300M), 0.5 mM CaCl2, multiple cycles; Kd from the association and dissociation rate constants
αβ-tubulin [9] = biological target: αβ-tubulin (UniProt P68363); assay: SPR; αβ-tubulin immobilised on a CM5 chip, S100P in solution; 150 mM NaCl, 0.5 mM CaCl2, multiple cycles; Kd from the association and dissociation rate constants
Recombinant S100P [10] = biological target: T2, Recombinant S100P; assay: ITC

## VNAAIATIKTKRTIQFVDWCPTGFKVGINY [VNA]
S100P; ITC, 25°C, 20 mM MES pH 6.1, 50 mM NaCl, 1.0 mM TCEP, 5 mM CaCl2, single site fit, peptide in cell, S100P titrated
  Kd: 62000 nM
S100P
  affinity for S100P (in words): relatively weak

## DIC peptide, the 26mer starting with DIC from β-tubulin
Recombinant S100P [1]
  percent inhibition of the extent of binding of 1 µM S100P to α,β-tubulin at 20 µM peptide: > 50%

## COc1cc2c(c(OC)c1OC)-c1ccc(OC)c(=O)cc1[C@@H](NC(C)=O)CC2 [colchicine]
HeLa cells
  reduction of migration by colchicine: 30–70%
Rama 37 cells
  reduction of migration by colchicine: 30–70%
Rama 37-T25 cells
  effect on S100P-enhanced migration: suppressed
MCF-7 cells; MCF-7, 5 µM time course, dose response 24 h
  effect of colchicine on migration (in words): increase dramatically cell migration in a time and dose-dependent manner
MCF-7 cells; MCF-7, colchicine
  concentration abolishing the enhancement of migration: > 10 µM
  incubation time abolishing the enhancement of migration: > 24 h
MCF-7 cells; MCF-7, colchicine, Figure 6C
  concentration range enhancing migration: 1 to 10 µM
COS-7 cells
  reduction of migration by colchicine: 30–70%
COS-7 S10 cells; COS-7 S10, 20 nM taxol or 5 µM colchicine, 24 h
  effect on S100P-enhanced migration: suppressed
COS-7 S10 cells; taxol to stabilise MTs or colchicine to dissociate MTs (abstract)
  effect on S100P's stimulation of migration: abolished
HeLa-A3 cells
  effect on S100P-enhanced migration: suppressed

## IMNTFSVVPSPKVSDTVVEPYNATL-SVH
S100P - α,β-tubulin
  effect on extent of binding of S100P to α,β-tubulin (in words): showed no such effect
S100P
  affinity for S100P (in words): very weak or nonbinder

## T-DLV, DLV peptide with the N-terminal 10 amino acid TAT-HA2 tag for cell entry
Recombinant S100P [1]
  percent reduction of the extent of binding of 1 µM S100P to α,β-tubulin at 20 µM peptide: 50%

## S100A4: S100 protein
[2]; ITC, preformed S100A4/NMIIA fragments, ref [57]
  change of Ca2+ Kd in complex with NMIIA fragments: reduced by several orders of magnitude
[2]
  Kd: > 1000 nM

## C[C@H]1c2cccc(O)c2C(=O)C2=C(O)[C@]3(O)C(=O)C(C(N)=O)=C(O)[C@@H](N(C)C)[C@@H]3[C@@H](O)[C@@H]21 [doxycycline, reference compound]
[3]
  effect of doxycycline on tubulin polymerisation, parental cells: no significant differences
[4]
  effect of doxycycline on tubulin polymerisation, parental cells: no significant differences

## S100B: S100 protein
tubulin
  interaction with tubulin: can interact with tubulin in a calcium-dependent manner
  effect on MT assembly: disrupt the assembly of MT
[2]
  Kd: > 1000 nM

## T-DIC, DIC peptide with the N-terminal 10 amino acid TAT-HA2 tag for cell entry
Recombinant S100P [1]
  percent reduction of the extent of binding of 1 µM S100P to α,β-tubulin at 20 µM peptide: 50%

## RRRQRRKKRG [Tag, 10 amino acid TAT-HA2 tag for cell entry, reference compound]
S100P - α,β-tubulin
  effect on extent of binding of S100P to α,β-tubulin (in words): showed no effect in the binding assay
COS-7 S10 cells; 20 µM tagged peptide, 8 h, doxycycline-induced COS-7 S10 vs uninduced
  S100P-induced fold increase in migration in the presence of peptide: 3.5 fold

B1: S100P (natural protein)
chain: T1 sequence (P25815 1-95)
αβ-tubulin [5]
  Kd: 120 nM
αβ-tubulin [6]
  Kd: 8300 nM
αβ-tubulin [7]
  Kd: 1100 nM
αβ-tubulin [8]
  Kd: 890 nM
αβ-tubulin [9]
  Kd: 210 nM

B2: S100A9/A8: S100A9/A8 (MRP14/MRP8) complex (protein, UniProt P06702 1-114; P05109 1-93, looked up)
Protein S100-A9: MTCKMSQLERNIETIINTFHQYSVKLGHPDTLNQGEFKELVRKDLQNFLKKENKNEKVIEHIMEDLDTNADKQLSFEEFIMLMARLTWASHEKMHEGDEGPGHHHKPGLGEGTP
Protein S100-A8: MLTELEKALNSIIDVYHKYSLIKGNFHAVYRDDLKKLLETECPQYIRKKGADVWFKELDINTDGAVNFQEFLILVIKMGVAAHKKSHEESHKE
tubulin; ref [27]
  effect on tubulin polymerisation in vivo: promotes tubulin polymerisation in vivo

B3: S100A1: S100 protein (protein, UniProt P23297 1-94, looked up)
Protein S100-A1: MGSELETAMETLINVFHAHSGKEGDKYKLSKKELKELLQTELSGFLDAQKDVDAVDKVMKELDENGDGEVDFQEYVVLVAALTVACNNFFWENS
tubulin
  interaction with tubulin: can interact with tubulin in a calcium-dependent manner
  effect on MT assembly: disrupt the assembly of MT

## DLVLDRIRKLADQCTGLQGFLVFHSFGGGT [DLV peptide, the 30mer starting with DLV from α-tubulin]
Recombinant S100P [10]
  Kd: < 10000 nM
Recombinant S100P [1]
  percent inhibition of the extent of binding of 1 µM S100P to α,β-tubulin at 20 µM peptide: > 50%
